# Patent US10703735B2, “4-phenyl-coumarin derivatives, processes for their preparation and uses thereof for the treatment of cancer” (Lead Discovery Center GmbH, priority 2018, dated 2020)
# Molecular target: mitochondrial RNA-polymerase (POLRMT) (Mus musculus, UniProt Q8BKF1)
# Assay: Homogeneous TR-FRET assay for mitochondrial transcription activity
# Type: biochemical
# Conditions: homogeneous TR-FRET assay according to Example 4; read-out: mitochondrial transcription activity (IC-50)
# Excerpt: The TR-FRET assay was basically conducted as described in WO 2016/193231A1, especially as described in example 1 (hereby incorporated by reference). With respect to the background of the mitochondrial transcription it is referred to Falkenberg et al. (2002) and Posse et al. (Posse et al. 2015). The method monitors the activity of mitochondrial RNA-polymerase via detection of the formation of its product, a 407 bp long RNA sequence. Detection of the product is facilitated by hybridization of two DNA-oligonucleotide probes to specific and adjacent sequences within the RNA product sequence. Upon annealing of the probes, two fluorophores that are coupled directly to an acceptor nucleotide probe (ATT0647, 5′) or introduced via a coupled streptavidin interacting with a biotinylated donor nucleotide probe on the other side (Europium cryptate, 3) are brought into sufficient proximity to serve as a fluorescence-donor-acceptor pair as generally described in Walters and Namchuk (2003). Thus, a FRET signal at 665 nm is generated upon excitation at 340 nm.
# Briefly, the protocol described here was applied for screening and activity determination in a low-volume 384-well microtiter plate with non-binding surface. For high-throughput application in the 1536-well microtiter plate format, volumes of the reagent mixes were adjusted, maintaining the volumetric ratio. Proteins POLRMT (NM_172551.3), TFAM (NM_009360.4) and TFB2M (NM_008249.4) were diluted from their stocks to working concentrations of 150 nM, 1.8 μM and 330 nM respectively, in a dilution buffer containing 100 mM Tris-HCl pH 8.0, 200 mM NaCl, 10% (v/v) glycerole, 2 mM glutathione (GSH), 0.5 mM EDTA and 0.1 mg/mL BSA. Protein dilutions and template DNA, comprising a pUC18 plasmid encoding the mitochondrial light strand promoter, restriction linearized proximal to the promoter 3′-end (pUC-LSP), were mixed at the twofold final assay-concentration in a reaction buffer, containing 10 mM Tris-HCl pH 7.5, 10 mM MgCl2, 40 mM NaCl, 2 mM GSH, 0.01% (w/v) Tween-20 and 0.1 mg/mL BSA.
# 5 μL of this mix were dispensed, depending on the chosen microtiter plate format, using multi-channel pipettes or a Multidrop® dispenser (Thermo Fisher Scientific, Waltham Mass.) into the wells of a microtiter plate and incubated at room temperature (RT) for 10 min. Chemical compounds under scrutiny in the assay were applied using contact-free acoustic droplet-dispensing (Echo520® Labcyte Inc., Sunnyvale Calif.) from 10 mM compound stocks in 100% DMSO, to a final concentration of 10 μM or in serial dilution series of the required concentration range. Equal amounts of DMSO without any compound were added to positive control samples, followed by an incubation step at RT for 10 min.
# The enzymatic reaction was started by the addition of 5 μL of a mix of dNTPs in reaction buffer to a final concentration of 500 μM each. No nucleotide mix was added to negative control samples. The content of the wells was mixed using a VarioTeleshaker™ (Thermo Fisher Scientific, Waltham Mass.) at 1500 rpm for 45 sec after which the microtiter plate was centrifuged at 500×g for 1 min. The samples were incubated for 2 h at RT with humidity control to avoid evaporation. The detection reagents were prepared in a buffer that was composed, such that the enzymatic reaction was terminated due to chelating of Mg-ions and increased ionic strength, containing 50 mM Tris-HCl pH 7.5, 700 mM NaCl, 20 mM EDTA, and 0.01% (w/v) Tween-20. Importantly Eu-cryptate-coupled streptavidin had to be preincubated with a 100-fold molar excess of a random sequence oligonucleotide for 10 min at RT in the dark to block unspecific binding of single stranded RNA to the protein. Subsequently, the blocked streptavidin(-Eu) was mixed with the DNA-probes on ice and kept away from light until use. […]
# mitochondrial RNA-polymerase (POLRMT), sequence (Q8BKF1 42-1207): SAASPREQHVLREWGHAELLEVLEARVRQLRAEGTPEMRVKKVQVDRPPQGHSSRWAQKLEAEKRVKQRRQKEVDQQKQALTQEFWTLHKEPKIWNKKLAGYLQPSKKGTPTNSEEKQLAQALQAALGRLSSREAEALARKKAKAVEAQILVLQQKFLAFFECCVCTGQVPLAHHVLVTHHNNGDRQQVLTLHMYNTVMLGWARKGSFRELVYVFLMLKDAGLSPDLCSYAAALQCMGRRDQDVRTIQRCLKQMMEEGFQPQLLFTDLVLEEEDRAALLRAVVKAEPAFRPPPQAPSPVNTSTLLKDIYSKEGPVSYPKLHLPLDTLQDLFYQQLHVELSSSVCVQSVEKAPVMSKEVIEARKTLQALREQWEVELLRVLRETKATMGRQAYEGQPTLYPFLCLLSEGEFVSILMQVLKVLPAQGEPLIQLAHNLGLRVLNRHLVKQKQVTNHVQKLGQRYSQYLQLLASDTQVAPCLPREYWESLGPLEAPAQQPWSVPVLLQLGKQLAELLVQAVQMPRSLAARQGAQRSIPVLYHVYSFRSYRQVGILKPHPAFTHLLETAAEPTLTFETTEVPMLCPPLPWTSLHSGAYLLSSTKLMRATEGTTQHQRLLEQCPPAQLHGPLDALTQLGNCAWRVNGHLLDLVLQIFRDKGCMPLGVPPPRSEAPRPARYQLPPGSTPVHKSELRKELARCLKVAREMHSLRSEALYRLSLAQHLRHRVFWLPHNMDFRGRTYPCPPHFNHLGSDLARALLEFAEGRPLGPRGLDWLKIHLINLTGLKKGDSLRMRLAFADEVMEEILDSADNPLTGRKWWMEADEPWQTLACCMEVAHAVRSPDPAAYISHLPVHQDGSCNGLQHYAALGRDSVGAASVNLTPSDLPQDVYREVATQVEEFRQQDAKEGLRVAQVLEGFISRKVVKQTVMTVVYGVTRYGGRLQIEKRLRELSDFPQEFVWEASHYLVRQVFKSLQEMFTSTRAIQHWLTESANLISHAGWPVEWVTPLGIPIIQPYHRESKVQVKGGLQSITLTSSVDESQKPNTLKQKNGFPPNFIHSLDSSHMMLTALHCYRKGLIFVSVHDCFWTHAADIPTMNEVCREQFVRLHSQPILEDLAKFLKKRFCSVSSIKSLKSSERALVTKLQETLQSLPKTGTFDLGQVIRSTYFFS
row,IC50 [µM],SMILES
1,0.1 to 1,"CC(Oc1cc2oc(=O)cc(-c3ccccc3)c2cc1Cl)C(=O)NCc1ccco1 (stereo not drawn) [Compound 42, 2-(6-chloro-2-oxo-4-phenyl-chromen-7-yl)oxy-N-(2-furylmethyl)propanamide]"
2,1 to 10,"CCOC(=O)C1CCCN(C(=O)COc2ccc3c(-c4ccccc4)cc(=O)oc3c2)C1 (stereo not drawn) [Compound 43, ethyl 1-[2-(2-oxo-4-phenyl-chromen-7-yl)oxyacetyl]piperidine-3-carboxylate]"
3,0.1 to 1,"CC(C)(C)OC(=O)COc1ccc2c(-c3ccccc3)cc(=O)oc2c1 [Compound 44, tert-butyl 2-(2-oxo-4-phenyl-chromen-7-yl)oxyacetate]"
4,1 to 10,"O=C(COc1cc2oc(=O)cc(-c3ccccc3)c2cc1Cl)N1CCOCC1 [Compound 45, 6-chloro-7-(2-morpholino-2-oxo-ethoxy)-4-phenyl-chromen-2-one]"
5,0.1 to 1,"O=C(COc1cc2oc(=O)cc(-c3ccccc3)c2cc1Cl)NC1CC1 [Compound 46, 2-(6-chloro-2-oxo-4-phenyl-chromen-7-yl)oxy-N-cyclopropyl-acetamide]"
6,0.1 to 1,"CCN(CC)C(=O)COc1cc2oc(=O)cc(-c3ccccc3)c2cc1Cl [Compound 47, 2-(6-chloro-2-oxo-4-phenyl-chromen-7-yl)oxy-N,N-diethyl-acetamide]"
7,1 to 10,"CCN(CC)C(=O)COc1ccc2c(-c3ccccc3)cc(=O)oc2c1 [Compound 48, N,N-diethyl-2-(2-oxo-4-phenyl-chromen-7-yl)oxy-acetamide]"
8,0.1 to 1,"CCOC(=O)COc1cc2oc(=O)cc(-c3ccccc3)c2cc1Cl [Compound 49, ethyl 2-(6-chloro-2-oxo-4-phenyl-chromen-7-yl)oxyacetate]"
9,0.1 to 1,"CCOC(=O)C(C)Oc1cc2oc(=O)cc(-c3ccccc3)c2cc1Cl (stereo not drawn) [Compound 50, ethyl 2-(6-chloro-2-oxo-4-phenyl-chromen-7-yl)oxypropanoate]"
10,0.1 to 1,"CC(Oc1ccc2c(-c3ccccc3)cc(=O)oc2c1)C(=O)O (stereo not drawn) [Compound 51, 2-(2-oxo-4-phenyl-chromen-7-yl)oxypropanoic acid]"
11,0.1 to 1,"O=C(O)C1CCCN(C(=O)COc2ccc3c(-c4ccccc4)cc(=O)oc3c2)C1 (stereo not drawn) [Compound 54, 1-[2-(2-oxo-4-phenyl-chromen-7-yl)oxyacetyl]piperidine-3-carboxylic acid]"
12,1 to 10,"CC(Oc1ccc2c(-c3ccccc3)cc(=O)oc2c1)C(=O)Nc1cccnc1 (stereo not drawn) [Compound 55, 2-(2-oxo-4-phenyl-chromen-7-yl)oxy-N-(3-pyridyl)propanamide]"
13,0.1 to 1,"COC(=O)C(C)Oc1ccc2c(-c3ccccc3)cc(=O)oc2c1 (stereo not drawn) [Compound 56, methyl 2-(2-oxo-4-phenyl-chromen-7-yl)oxypropanoate]"
14,0.1 to 1,"O=C(COc1cc2oc(=O)cc(-c3ccccc3)c2cc1Cl)Nc1ccc(CCO)cc1 [Compound 57, 2-(6-chloro-2-oxo-4-phenyl-chromen-7-yl)oxy-N-[4-(2-hydroxyethyl)phenyl]acetamide]"
15,0.1 to 1,"COC(=O)C(C)Oc1cc2oc(=O)cc(-c3ccccc3)c2cc1Cl (stereo not drawn) [Compound 58, methyl 2-(6-chloro-2-oxo-4-phenyl-chromen-7-yl)oxypropanoate]"
16,1 to 10,"O=C(COc1cc2oc(=O)cc(-c3ccccc3)c2cc1Cl)NCc1cccnc1 [Compound 59, 2-(6-chloro-2-oxo-4-phenyl-chromen-7-yl)oxy-N-(3-pyridylmethyl)acetamide]"
17,1 to 10,"CC(Oc1ccc2c(-c3ccccc3)cc(=O)oc2c1)C(=O)N1CCCC(C(N)=O)C1 (stereo not drawn) [Compound 60, 1-[2-(2-oxo-4-phenyl-chromen-7-yl)oxypropanoyl]piperidine-3-carboxamide]"
18,1 to 10,"CC(Oc1ccc2c(-c3ccccc3)cc(=O)oc2c1)C(=O)Nc1ccncc1 (stereo not drawn) [Compound 61, 2-(2-oxo-4-phenyl-chromen-7-yl)oxy-N-(4-pyridyl)propanamide]"

row,IC50 [µM],SMILES
1,1 to 10,"CNC(=O)C1CCCN(C(=O)C(C)Oc2ccc3c(-c4ccccc4)cc(=O)oc3c2)C1 (stereo not drawn) [Compound 62, N-methyl-1-[2-(2-oxo-4-phenyl-chromen-7-yl)oxypropanoyl]piperidine-3-carboxamide]"
2,1 to 10,"COC(=O)C1CCN(C(=O)C(C)Oc2ccc3c(-c4ccccc4)cc(=O)oc3c2)CC1 (stereo not drawn) [Compound 63, methyl 1-[2-(2-oxo-4-phenyl-chromen-7-yl)oxypropanoyl]piperidine-4-carboxylate]"
3,1 to 10,"C[C@@H](Oc1ccc2c(-c3ccccc3)cc(=O)oc2c1)C(=O)O [Compound 66, (2R)-2-(2-oxo-4-phenyl-chromen-7-yl)oxypropanoic acid]"
4,1 to 10,"CC(Oc1ccc2c(-c3ccccc3)cc(=O)oc2c1)C(N)=O (stereo not drawn) [Compound 67, 2-(2-oxo-4-phenyl-chromen-7-yl)oxypropanamide]"
5,1 to 10,"CC(Oc1ccc2c(-c3ccccc3)cc(=O)oc2c1)C(=O)N1CCC(C(=O)O)CC1 (stereo not drawn) [Compound 69, 1-[2-(2-oxo-4-phenyl-chromen-7-yl)oxypropanoyl]piperidine-4-carboxylic acid]"
6,1 to 10,"CC(Oc1ccc2c(-c3ccccc3)cc(=O)oc2c1)C(=O)NCCN1CCOCC1 (stereo not drawn) [Compound 70, N-(2-morpholinoethyl)-2-(2-oxo-4-phenyl-chromen-7-yl)oxy-propanamide]"
7,1 to 10,"CCOC(=O)C(CC)Oc1ccc2c(-c3ccccc3)cc(=O)oc2c1 (stereo not drawn) [Compound 71, ethyl 2-(2-oxo-4-phenyl-chromen-7-yl)oxybutanoate]"
8,1 to 10,"COc1ccc(NC(=O)C(C)Oc2ccc3c(-c4ccccc4)cc(=O)oc3c2)cc1 (stereo not drawn) [Compound 72, N-(4-methoxyphenyl)-2-(2-oxo-4-phenyl-chromen-7-yl)oxy-propanamide]"
9,1 to 10,"CCOCCOC(=O)COc1ccc2c(-c3ccccc3)cc(=O)oc2c1 [Compound 73, 2-ethoxyethyl 2-(2-oxo-4-phenyl-chromen-7-yl)oxyacetate]"
10,1 to 10,"CCCOC(=O)COc1ccc2c(-c3ccccc3)cc(=O)oc2c1 [Compound 74, propyl 2-(2-oxo-4-phenyl-chromen-7-yl)oxyacetate]"
11,1 to 10,"NC(=O)COc1ccc2c(-c3ccccc3)cc(=O)oc2c1 [Compound 75, 2-(2-oxo-4-phenyl-chromen-7-yl)oxyacetamide]"
12,1 to 10,"CCCCOC(=O)COc1ccc2c(-c3ccccc3)cc(=O)oc2c1 [Compound 76, butyl 2-(2-oxo-4-phenyl-chromen-7-yl)oxyacetate]"
13,1 to 10,"CC(C)COC(=O)COc1ccc2c(-c3ccccc3)cc(=O)oc2c1 [Compound 77, isobutyl 2-(2-oxo-4-phenyl-chromen-7-yl)oxyacetate]"
14,1 to 10,"O=C(COc1cc2oc(=O)cc(-c3ccccc3)c2cc1Cl)N1CCCc2ccccc21 [Compound 78, 6-chloro-7-[2-(3,4-dihydro-2H-quinolin-1-yl)-2-oxo-ethoxy]-4-phenyl-chromen-2-one]"
15,1 to 10,"CC(Oc1cc2oc(=O)cc(-c3ccccc3)c2cc1Cl)C(=O)NCCN1CCOCC1 (stereo not drawn) [Compound 79, 2-(6-chloro-2-oxo-4-phenyl-chromen-7-yl)oxy-N-(2-morpholinoethyl)propanamide]"
16,1 to 10,"CC(Oc1cc(F)c2c(-c3ccccc3)cc(=O)oc2c1)C(=O)N(C)C (stereo not drawn) [Compound 80, 2-(5-fluoro-2-oxo-4-phenyl-chromen-7-yl)oxy-N,N-dimethyl-propanamide]"
17,1 to 10,"CCOC(=O)COc1ccc2c(-c3ccccc3)cc(=O)oc2c1 [Compound 81, ethyl 2-(2-oxo-4-phenyl-chromen-7-yl)oxyacetate]"
18,1 to 10,"CC(C)(C)OC(=O)COc1cc2oc(=O)cc(-c3ccccc3)c2cc1Cl [Compound 82, tert-butyl 2-(6-chloro-2-oxo-4-phenyl-chromen-7-yl)oxyacetate]"
